Experimental data reported in patent US20100099770A1, “METHOD FOR TREATING DIABETIC PERIPHERAL NEUROPATHIC PAIN” (SCHWARZ PHARMA AG, priority 2001, published 2010).
“And” between values parts separate entries of the source, which are not always exact repeats. Equal values may be shown once. Marks after values point to notes of the source that are not given here.

Legend:
[1] = tested on: formalin-induced nociception (paw licking); assay: Subchronic inflammatory nociception in mice (formalin test); type: in vivo; details: for nociceptive threshold, early phase: 0-5 min after formalin (acute pain); for nociceptive threshold, late phase: 20-30 min after formalin (subchronic inflammatory pain)
Protocol: Subchronic inflammatory nocicpetion in mice was induced by the subplantar injection of formalin (0.02 ml of a 5% solution). Nociceptive behaviour (paw licking) was measured and quantified between 0 and 5 min (acute pain) and between 20 and 30 min (subchronic inflammatory pain) after formalin.
(§1) Drugs and experimental design: SPM 927 and GBP were suspended in 1% methylcellulose and administered i.p. at doses of 10 mg/kg, 20 mg/kg and 40 mg/kg. Pre-treatment time was 30 min before pain measurement. One group of animals served as controls and consequently received an injection of solvent (10 ml/kg) and another group of animals received a reference compound (Carrageenan test: 10 mg/kg indomethacin; Formalin test: 10 mg/kg morphine). Each compound was tested in a separate experiment and each experiment included a control and a reference group. 10 rats per group were used in the Carrageenan test and 6 mice per group in the formalin test.

[2] = tested on: neuropathic pain (CHUNG), tactile stimulation; assay: Neuropathic pain (CHUNG) test, tactile stimulation on lesioned paw; type: in vivo, rat; details: for FORCE INDUCING PAW-WITHDRAWAL, % change: compared with lesioned control; for FORCE INDUCING PAW-WITHDRAWAL, mean ± s.e.m.: lesioned paw
Text: (§2) The following Tables 8 and 9 show the effects of harkoseride (hereinafter referred tows SPM 927), carbamazepine, levetiracetam, gabapentin and morphine in the neuropathic pain (CHUNG) test in the rat. Eight (8) rats per group were used.

[3] = tested on: neuropathic pain (CHUNG), thermal stimulation; assay: Neuropathic pain (CHUNG) test, thermal stimulation on lesioned paw; type: in vivo, rat
Text: as §2

[4] = tested on: Carrageenan-induced mechanical hyperalgesia; assay: Carrageenan-induced mechanical hyperalgesia, paw pressure (Randall-Sellito) test; type: in vivo, rats; details: for nociceptive threshold: inflamed paw, 3 h after carrageenan
Protocol: Carrageenan-induced mechanical hyperalgesia in rats was induced by subplantar injection of a 0.1 ml of a 2% carrageenan suspension and measured 3 h afterwards by the paw pressure (Randall-Sellito) test.
as §1

[5] = 16 mg/kg i.p. -30 min, compared with lesioned control
[6] = 16 mg/kg i.p. -30 min, lesioned paw
[7] = 10 mg/kg i.p. 30 min before measurement
[8] = 32 mg/kg i.p. -30 min, compared with lesioned control
[9] = 32 mg/kg i.p. -30 min, lesioned paw
[10] = 64 mg/kg i.p. -30 min, compared with lesioned control
[11] = 64 mg/kg i.p. -30 min, lesioned paw

CN1CC[C@]23c4c5ccc(O)c4O[C@H]2[C@@H](O)C=C[C@H]3[C@H]1C5 [Morphine, morphine]
nociceptive threshold, early phase ([1]; 10 mg/kg i.p.): 8 ± 6^a s and 6 ± 3^a s
FORCE INDUCING PAW-WITHDRAWAL, % change ([2]; 16 mg/kg i.p. -30 min): +164% (b)
FORCE INDUCING PAW-WITHDRAWAL, mean ± s.e.m. ([2]; 16 mg/kg i.p. -30 min): 45.9 ± 8.8 (b) g
PAW-[…], % change [3, 5]: +160% (b)
PAW-[…], mean ± s.e.m. [3, 6]: 42.4 ± 1.9 (b) sec

COc1ccc2c(c1)c(CC(=O)O)c(C)n2C(=O)c1ccc(Cl)cc1 [Indomethacin, indomethacin]
nociceptive threshold [4, 7]: 370 ± 15^b and 384 ± 11^b

NC(=O)N1c2ccccc2C=Cc2ccccc21 [Carbamazepine, carbamazepine]
FORCE INDUCING PAW-WITHDRAWAL, % change ([2]; 16 mg/kg i.p. -30 min): +21% (b)
FORCE INDUCING PAW-WITHDRAWAL, mean ± s.e.m. ([2]; 16 mg/kg i.p. -30 min): 21.0 ± 2.3 NS (b) g
FORCE INDUCING PAW-WITHDRAWAL, % change ([2]; 32 mg/kg i.p. -30 min): +121% (b)
FORCE INDUCING PAW-WITHDRAWAL, mean ± s.e.m. ([2]; 32 mg/kg i.p. -30 min): 38.4 ± 8.1 (b) g
FORCE INDUCING PAW-WITHDRAWAL, % change ([2]; 64 mg/kg i.p. -30 min): +125% (b)
FORCE INDUCING PAW-WITHDRAWAL, mean ± s.e.m. ([2]; 64 mg/kg i.p. -30 min): 39.2 ± 9.1 (b) g
PAW-WITHDRAWAL LATENCY, % change [3, 5]: +118% (b)
PAW-WITHDRAWAL LATENCY, mean ± s.e.m. [3, 6]: 35.6 ± 4.1 (b) sec
PAW-WITHDRAWAL LATENCY, % change [3, 8]: +39% (b)
PAW-WITHDRAWAL LATENCY, mean ± s.e.m. [3, 9]: 22.7 ± 4.3 NS (b) sec
PAW-WITHDRAWAL LATENCY, % change [3, 10]: +77% (b)
PAW-WITHDRAWAL LATENCY, mean ± s.e.m. [3, 11]: 28.8 ± 6.9 NS (b) sec

CC[C@@H](C(N)=O)N1CCCC1=O [Levetiracetam, levetiracetam]
FORCE INDUCING PAW-WITHDRAWAL, % change ([2]; 16 mg/kg i.p. -30 min): +32% (b)
FORCE INDUCING PAW-WITHDRAWAL, mean ± s.e.m. ([2]; 16 mg/kg i.p. -30 min): 23.0 ± 4.0 NS (b) g
FORCE INDUCING PAW-WITHDRAWAL, % change ([2]; 32 mg/kg i.p. -30 min): +44% (b)
FORCE INDUCING PAW-WITHDRAWAL, mean ± s.e.m. ([2]; 32 mg/kg i.p. -30 min): 25.0 ± 5.2 NS (b) g
FORCE INDUCING PAW-WITHDRAWAL, % change ([2]; 64 mg/kg i.p. -30 min): +14% (b)
FORCE INDUCING PAW-WITHDRAWAL, mean ± s.e.m. ([2]; 64 mg/kg i.p. -30 min): 19.8 ± 4.1 NS (b) g
PAW-WITHDRAWAL LATENCY, % change [3, 5]: +17% (b)
PAW-WITHDRAWAL LATENCY, mean ± s.e.m. [3, 6]: 19.0 ± 3.6 NS (b) sec
PAW-WITHDRAWAL LATENCY, % change [3, 8]: +5% (b)
PAW-WITHDRAWAL LATENCY, mean ± s.e.m. [3, 9]: 17.1 ± 2.9 NS (b) sec
PAW-WITHDRAWAL LATENCY, % change [3, 10]: +63% (b)
PAW-WITHDRAWAL LATENCY, mean ± s.e.m. [3, 11]: 26.6 ± 6.0 NS (b) sec

NCC1(CC(=O)O)CCCCC1 [GBP, gabapentin]
nociceptive threshold [4, 7]: 254 ± 39
nociceptive threshold ([4]; 20 mg/kg i.p. 30 min before measurement): 296 ± 31
nociceptive threshold ([4]; 40 mg/kg i.p. 30 min before measurement): 282 ± 33
effect on Carrageenan-induced mechanical hyperalgesia (in words) ([4]; 10, 20, 40 mg/kg i.p.): no significant effect
nociceptive threshold, early phase ([1]; 10 mg/kg i.p.): 98 ± 20 s
nociceptive threshold, late phase ([1]; 10 mg/kg i.p.): 133 ± 30 s
nociceptive threshold, early phase ([1]; 20 mg/kg i.p.): 102 ± 17 s
nociceptive threshold, late phase ([1]; 20 mg/kg i.p.): 118 ± 13 s
nociceptive threshold, early phase ([1]; 40 mg/kg i.p.): 72 ± 10 s
nociceptive threshold, late phase ([1]; 40 mg/kg i.p.): 73 ± 13 s
effect on formalin-induced nociceptive response (in words) ([1]; 10, 20, 40 mg/kg i.p.): slightly but not significantly inhibited
FORCE INDUCING PAW-WITHDRAWAL, % change ([2]; 32 mg/kg i.p. -30 min): −1% (b)
FORCE INDUCING PAW-WITHDRAWAL, mean ± s.e.m. ([2]; 32 mg/kg i.p. -30 min): 17.2 ± 3.0 NS (b) g
FORCE INDUCING PAW-WITHDRAWAL, % change ([2]; 64 mg/kg i.p. -30 min): +35% (b)
FORCE INDUCING PAW-WITHDRAWAL, mean ± s.e.m. ([2]; 64 mg/kg i.p. -30 min): 23.5 ± 4.2 NS (b) g
FORCE INDUCING PAW-WITHDRAWAL, % change ([2]; 128 mg/kg i.p. -30 min): +93% (b)
FORCE INDUCING PAW-WITHDRAWAL, mean ± s.e.m. ([2]; 128 mg/kg i.p. -30 min): 33.6 ± 6.7 (b) g
PAW-WITHDRAWAL LATENCY, % change [3, 8]: +18% (b)
PAW-WITHDRAWAL LATENCY, mean ± s.e.m. [3, 9]: 19.3 ± 3.6 NS (b) sec
PAW-WITHDRAWAL LATENCY, % change [3, 10]: +75% (b)
PAW-WITHDRAWAL LATENCY, mean ± s.e.m. [3, 11]: 28.5 ± 5.4 NS (b) sec
PAW-WITHDRAWAL LATENCY, % change ([3]; 128 mg/kg i.p. -30 min, compared with lesioned control): +66% (b)
PAW-WITHDRAWAL LATENCY, mean ± s.e.m. ([3]; 128 mg/kg i.p. -30 min, lesioned paw): 27.1 ± 5.2 NS (b) sec
